Assay [1] deals with 8701-BC breast cancer cells. The assay is described as follows: Cell proliferation assay (MTT), 8701-BC. Format: cell-based, human. Conditions: exponentially growing 8701-BC cells, compounds 0-100 μM, 72 hours, means ± SEM, NA = not active at 100 μM concentration. On the procedure: (§1) A431 (2×10^4 cells/mL) were incubated in […] DMEM culture medium (BioWhittaker, Vallensbaek, DK). Differently, 8701-BC (2×10^4 cells/mL) were incubated in 100 μL RPMI 1640 culture medium (BioWhittaker, Vallensbaek, DK). Both cell lines were supplemented with 10% foetal calf serum (FCS; BioWhittaker, Vallensbaek, DK) and antibiotics (100 U/mL penicillin and 100 μg/mL streptomycin), at 37° C. in 5% CO2 for 8 hours, to allow adhesion. After adhesion, the medium was replaced with 100 μL medium supplemented with 0.5% FCS. After an overnight incubation, the medium was replaced and 100 μL DMEM with 10% FCS along with different concentrations (0-100 μM) of the studied compounds were added to cell cultures.
(§2) Following 72 hours, cells were treated with 10 μL of the 3-(4,5-dimethylthiazol-2-yl)-[…] (MTT) solution (5 mg/mL). Four hours later, 100 μL of propan-2-ol in a 0.04 M HCl solution were added to dissolve the formazan product. The microplates were read using an ELISA plate reader at 570 nm with a reference wavelength of 630 nm.

Assay [2] deals with A431 human epidermoid carcinoma cells. The assay is described as follows: Cell proliferation assay (MTT), A431. Format: cell-based. Particulars: compounds 0-100 μM, 72 hours, means ± SEM, NA = not active at 100 μM concentration. As for the experimental part:
as §1, §2

A further assay concerns K562 cells. The assay is described as follows: Cell proliferation assay, K562. Format: cell-based, human. Conditions: compounds 0-100 μM, means ± SEM. On the procedure:
(§3) MEG-01 and K562 (2×10^4 cells/mL) were incubated in 100 μL RPMI 1640 culture medium (BioWhittaker, Vallensbaek, DK), supplemented with 10% foetal calf serum (FCS; BioWhittaker, Vallensbaek, DK) and antibiotics (100 U/mL penicillin and 100 μg/mL streptomycin), at 37° C. in 5% CO2. After an overnight incubation with 100 μL medium supplemented with 0.5% FCS, the medium was replaced and 100 μL RPMI 1640 with 10% FCS along with different concentrations (0-100 μM) of the studied compounds, were added to cell cultures.

Another assay deals with Meg-01 cells. The assay is described as follows: Cell proliferation assay, Meg-01. Format: cell-based, human. Conditions: compounds 0-100 μM, means ± SEM. On the procedure:
as §3

Another assay addresses T1, Src (Tyr416) (Homo sapiens, UniProt P12931).
T1 construct: subjected to immunoblot using phospho-specific antibodies against Src (Y416) and non pospho-specific Src as control; endogenous in cells; host or cells: 8701-BC breast cancer cells
The experiment in a line: Phospho-Src inhibition, immunoblot, 8701-BC cells after EGF stimulation. In kind it is cell-based. As for the experimental part:
FIG. 3. […] Immunoblot analysis was performed using phospho-specific antibodies to Src (Tyr416). Filters were additionally reprobed with specific non-phospho anti-Src antibodies after stripping. Lane 1: cell control; lane 2: cells treated for 15 min with EGF (100 nM); lane 3-7: cells challenged for 3 h in the presence of 10 μM of the specified compound and then treated for 15 min with EGF (100 nM).
Immunoblot analysis was performed using phospho-specific antibodies to Src (Tyr416). Filters were additionally reprobed with specific non-phospho anti-Src antibodies after stripping.
Cells were treated as reported above but the cells were challenged with the compounds for 3 h, and then treated with 100 nM EGF (Cell Signaling Technology, MA, U.S.A.). […] later, cells were harvested and lysed in an appropriate buffer containing 1% Triton X-100. Proteins were quantitated by the BCA method (Pierce Rockford, U.S.A.). Equal amounts of total cellular protein were resolved by SDS-polyacrylamide gel electrophoresis, transferred to nitrocellulose filters and subjected to immunoblot using phospho-specific antibodies against Src (Y416) and non pospho-specific Src as control (Cell Signaling Technology, MA, U.S.A.).
A general note: A western blot detects proteins with antibodies after separation by electrophoresis.

[3] abbreviates: 10 μM compound 3 h, then 100 nM EGF 15 min, immuno blot gel area.

T1 sequence (P12931 whole entry): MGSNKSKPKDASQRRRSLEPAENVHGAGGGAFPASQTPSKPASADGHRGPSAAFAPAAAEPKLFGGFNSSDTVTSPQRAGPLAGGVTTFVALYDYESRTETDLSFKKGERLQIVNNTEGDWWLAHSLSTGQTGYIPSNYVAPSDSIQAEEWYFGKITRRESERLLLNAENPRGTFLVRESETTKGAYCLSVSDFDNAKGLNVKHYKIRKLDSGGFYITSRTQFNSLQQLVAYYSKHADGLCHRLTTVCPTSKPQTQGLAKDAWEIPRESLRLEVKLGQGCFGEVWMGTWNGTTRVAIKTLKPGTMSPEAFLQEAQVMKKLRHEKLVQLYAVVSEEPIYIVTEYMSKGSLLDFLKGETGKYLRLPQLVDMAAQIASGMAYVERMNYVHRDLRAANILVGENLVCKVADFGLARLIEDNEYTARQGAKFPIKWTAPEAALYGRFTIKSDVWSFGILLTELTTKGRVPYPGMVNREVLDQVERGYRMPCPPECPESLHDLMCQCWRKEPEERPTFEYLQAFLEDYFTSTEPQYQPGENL

A word on the IC50: it is the concentration needed to halve the response being measured. A high value points to lower potency. Turning to `CSc1nc(NC2CCCCC2)c2cnn(CC(Cl)c3ccccc3)c2n1` (centres unmarked) [Compound 1k], the figures for the IC50 in assay [1] and in assay [2] were 35.3 ± 0.5 µM and 43.8 ± 0.7 µM, respectively. Turning to `C(=Cn1ncc2c(NCc3ccccc3)ncnc21)c1ccccc1` [Compound 4i], the half-maximal inhibitory concentration (IC50) in assay [1] is 65 ± 0.3 µM; in assay [2], 11.7 ± 0.1 µM. `BrC(Cn1ncc2c(NC3CCCCC3)ncnc21)c1ccccc1` (centres unmarked) [Compound 5i]: the results for the concentration for half-maximal inhibition (IC50) (in assay [2]; in the assay on K562 cells; with Meg-01 cells) were 28.2 ± 0.4 µM, 38.2 ± 0.8 µM and 32.7 ± 0.3 µM, respectively. `CCCCNc1ncnc2c1cnn2CC(O)c1ccccc1` (centres unmarked) [Compound 3b] yielded a 50% inhibitory concentration (IC50) in assay [2] of 83.2 ± 1.8 µM. As to `CCCCNc1nc(SCC)nc2c1cnn2CC(Cl)c1ccccc1` (centres unmarked) [Compound 2c], the results for the IC50 (in assay [1]; in assay [2]; in the assay on K562 cells) were 38.8 ± 0.5 µM, 40.2 ± 0.4 µM and 27.4 ± 0.6 µM, respectively. For the compound `CCSc1nc(N2CCOCC2)c2cnn(C=Cc3ccccc3)c2n1` [Compound 4k], the IC50 in assay [2] was 49.8 ± 0.8 µM; with K562 cells, 75.1 ± 1.7 µM; in the assay on Meg-01 cells, 12.1 ± 1.1 µM. Regarding `CSc1nc(N2CCCCC2)c2cnn(C=Cc3ccccc3)c2n1` [Compound 4m], the half-maximal inhibitory concentration (IC50) in assay [2] was 54.1 ± 0.7 µM.

Regarding `CCCNc1nc(SC)nc2c1cnn2CC(Cl)c1ccccc1` (centres unmarked) [Compound 1g], the 50% inhibitory concentration (IC50) worked out at 64.1 ± 0.5 µM in assay [1] and 32.1 ± 0.5 µM in assay [2]. On to `CSc1nc(NCc2ccccc2)c2cnn(C=Cc3ccccc3)c2n1` [Compound 4l], for which the IC50 in assay [2] turned out to be 39.8 ± 0.6 µM. As for `CSc1nc(NCc2ccccc2)c2cnn(CC(Cl)c3ccccc3)c2n1` (centres unmarked) [Compound 1e], the figures for the IC50 in assay [1] and in assay [2] were 53.2 ± 1.2 µM and 24.6 ± 0.7 µM, respectively. `OC(Cn1ncc2c(N3CCCCC3)ncnc21)c1ccccc1` (centres unmarked) [Compound 3c] came in with an IC50 in assay [2] of 13.4 ± 0.2 µM. Take `CSc1nc(N2CCCCC2)c2cnn(CC(Cl)c3ccccc3)c2n1` (centres unmarked) [Compound 1a]: the IC50 was 67.5 ± 1.2 µM in assay [1] and 37.6 ± 0.8 µM in assay [2]. For the compound `CCOCCNc1ncnc2c1cnn2C=Cc1ccccc1` [Compound 4f], the IC50 in assay [1] was 43.4 ± 0.4 µM. The same measure, in the same setting: the same measure for `CCSc1nc(NCc2ccccc2)c2cnn(CC(Cl)c3ccccc3)c2n1` (centres unmarked) [Compound 2f]: 42.8 ± 0.8 µM. The compound `CCCNc1ncnc2c1cnn2CC(O)c1ccccc1` (centres unmarked) [Compound 3d] had a concentration for half-maximal inhibition (IC50) in assay [2] of 91.2 ± 1.4 µM. In the case of `CCSc1nc(N2CCOCC2)c2cnn(CC(Cl)c3ccccc3)c2n1` (centres unmarked) [Compound 2b], the figures for the IC50 in assay [1] and in assay [2] were 79.8 ± 3 µM and 42.3 ± 0.7 µM, respectively.

`CCOCCNc1nc(SC)nc2c1cnn2CC(Cl)c1ccccc1` (centres unmarked) [Compound 1c]: the IC50 is 59.8 ± 3.1 µM in assay [1] and 32.4 ± 0.6 µM in assay [2].

For the compound `CSc1nc(N2CCOCC2)c2cnn(CC(Cl)c3ccccc3)c2n1` (centres unmarked) [Compound 1b], the concentration for half-maximal inhibition (IC50) is 64.2 µM in assay [1] and 26.9 ± 0.4 µM in assay [2]. In the same order, the values of `C(=Cn1ncc2c(N3CCOCC3)ncnc21)c1ccccc1` [Compound 4b] are 58.8 ± 0.7 µM and 59.2 ± 1 µM. The matching figures for `CCCCNc1nc(SC)nc2c1cnn2CC(Cl)c1ccccc1` (centres unmarked) [Compound 1d]: 63.8 ± 2.1 µM and 27.4 ± 0.5 µM. On to `CCCCNc1ncnc2c1cnn2CC(Br)c1ccccc1` (centres unmarked) [Compound 5d], for which the IC50 in assay [2] came out at 33.6 ± 1.2 µM; in the assay on K562 cells, 34.3 ± 0.9 µM; in the assay with Meg-01 cells it was 19.4 ± 0.4 µM. In the case of `CCCNc1ncnc2c1cnn2C=Cc1ccccc1` [Compound 4e], the IC50 was found to be 57.2 ± 0.8 µM in assay [1] and 61.2 ± 1 µM in assay [2].

Turning to `COc1cc2ncnc(Nc3cccc(Cl)c3)c2cc1OC` [AG1478, reference compound], the midpoint of inhibition in assay [2], the IC50, lay at 20.2 ± 0.4 µM. On the same count and under the same terms, to `OC(Cn1ncc2c(NCc3ccccc3)ncnc21)c1ccccc1` (centres unmarked) [Compound 3e] belongs 12.7 ± 0.7 µM. Turning to `OC(Cn1ncc2c(NCc3ccc(F)cc3)ncnc21)c1ccccc1` (centres unmarked) [Compound 3g], the half-maximal inhibitory concentration (IC50) was determined as 54.4 ± 1.5 µM in assay [1] and 95.7 ± 2.3 µM in assay [2]. Consider `C(=Cn1ncc2c(NCCc3ccccc3)ncnc21)c1ccccc1` [Compound 4j], for which the IC50 in assay [1] is 64.7 ± 0.6 µM; in assay [2], 15 ± 1.2 µM. In assay [2], `OC(Cn1ncc2c(N3CCOCC3)ncnc21)c1ccccc1` (centres unmarked) [Compound 3a] had a half-inhibitory concentration (IC50) of 86.9 ± 2.1 µM. With `C(=Cn1ncc2c(N3CCCC3)ncnc21)c1ccccc1` [Compound 4g], the half-maximal inhibitory concentration (IC50) in assay [1] came out at 50.4 ± 0.1 µM; in assay [2], 63.1 ± 1 µM. In the same order, the values of `CSc1nc(N2CCCC2)c2cnn(CC(Cl)c3ccccc3)c2n1` (centres unmarked) [Compound 1i] are 56.3 ± 2 µM and 32.3 ± 0.8 µM. On to `CSc1nc(NCCc2ccccc2)c2cnn(CC(Cl)c3ccccc3)c2n1` (centres unmarked) [Compound 1f], for which the IC50 in assay [1] came out at 31.2 µM; in assay [2], 27.1 ± 0.2 µM. Besides, at Src (Tyr416) (10 μM compound 3 h, then 100 nM EGF 15 min, Control + EGF 56, Control 23), the “Phospho-Src/Non-phospho-Src ratio (%)” value was 9%. Also, the Non-phospho-Src on Src (Tyr416) (setting [3]) was 168 area units. Besides, at Src (Tyr416) (setting [3]), the “Phospho-Src (Tyr416)” value is 15 area units. For the same compound, the “inhibition of Src phosphorylation compared with PP2 (in words)” value against Src (Tyr416) (immunoblot, phospho-specific antibodies to Src (Tyr416)) is reported as “inhibit Src phosphorylation better than the reference compound PP2”. For the compound `CSc1nc(N2CCOCC2)c2cnn(C=Cc3ccccc3)c2n1` [Compound 4n], the IC50 in assay [2] was determined as 35.7 ± 0.6 µM. In turn, `CSc1nc(N2CCCCCC2)c2cnn(CC(Cl)c3ccccc3)c2n1` (centres unmarked) [Compound 1j] showed an IC50 in assay [1] of 54.4 ± 0.8 µM.

In assay [1], `C(=Cn1ncc2c(NC3CCCCC3)ncnc21)c1ccccc1` [Compound 4h] had an IC50 of 50.5 ± 1.3 µM.

With `CCN(CC)c1nc(SC)nc2c1cnn2CC(Cl)c1ccccc1` (centres unmarked) [Compound 1h], the IC50 was determined as 86.9 ± 1.2 µM in assay [1] and 70.2 ± 1.4 µM in assay [2].

As to `CCCNc1nc(SCC)nc2c1cnn2CC(Cl)c1ccccc1` (centres unmarked) [Compound 2d], the concentration for half-maximal inhibition (IC50) was determined as 28.6 ± 1.6 µM in assay [1] and 79.4 ± 1.8 µM in assay [2].

On to `CCSc1nc(N2CCCC2)c2cnn(CC(Cl)c3ccccc3)c2n1` (centres unmarked) [Compound 2e], for which the IC50 in assay [1] is 72.1 ± 1.7 µM; in assay [2], 89.3 ± 1.7 µM. The matching figures for `CCCCNc1ncnc2c1cnn2C=Cc1ccccc1` [Compound 4c]: 80.5 ± 6.8 µM and 91.5 ± 2 µM. In assay [2], `C(=Cn1ncc2c(N3CCCCC3)ncnc21)c1ccccc1` [Compound 4a] had an IC50 of 69.3 ± 1.2 µM.

Regarding `C(=Cn1ncc2c(N3CCCCCC3)ncnc21)c1ccccc1` [Compound 4d], the concentration for half-maximal inhibition (IC50) in assay [1] was 93.7 ± 0.6 µM; in assay [2], 43.6 ± 1.3 µM. In the same order, the values of `OC(Cn1ncc2c(NCCc3ccccc3)ncnc21)c1ccccc1` (centres unmarked) [Compound 3f] are 45.6 ± 0.5 µM and 80.1 ± 2.5 µM.

Source of the values: patent US7589086B2, “Substituted pyrazolo[3,4-D]pyrimidines as anti-tumor agents” (Universita degli Studi di Siena, priority 2003, dated 2009).
